ChEMBL document CHEMBL1629524, “2-Azetidinone--a new profile of various pharmacological activities” (Eur J Med Chem, 2010)
Values after ≈ are worked out from the molar mass of the structure shown.

Assays:
Pseudomonas aeruginosa = test: Antimicrobial activity against Pseudomonas aeruginosa ATCC 10145; format: functional
Chymase = biological target: T1, Chymase (Homo sapiens, UniProt P23946); test: Inhibition of human Chymase
T1 sequence (P23946 whole entry): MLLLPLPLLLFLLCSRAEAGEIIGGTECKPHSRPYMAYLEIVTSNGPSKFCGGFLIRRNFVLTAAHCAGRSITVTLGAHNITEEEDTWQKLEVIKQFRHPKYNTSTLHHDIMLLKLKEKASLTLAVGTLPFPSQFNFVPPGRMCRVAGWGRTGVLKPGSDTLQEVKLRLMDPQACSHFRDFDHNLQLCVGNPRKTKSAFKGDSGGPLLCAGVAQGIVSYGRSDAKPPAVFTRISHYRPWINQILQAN

[1] = Inhibition of bovine brain tubulin polymerization; set-up: species or system Bos taurus
Neutrophil elastase = biological target: T2, Neutrophil elastase (Homo sapiens, UniProt P08246); test: Inhibition of human leukocyte elastase
T2 sequence (P08246 whole entry): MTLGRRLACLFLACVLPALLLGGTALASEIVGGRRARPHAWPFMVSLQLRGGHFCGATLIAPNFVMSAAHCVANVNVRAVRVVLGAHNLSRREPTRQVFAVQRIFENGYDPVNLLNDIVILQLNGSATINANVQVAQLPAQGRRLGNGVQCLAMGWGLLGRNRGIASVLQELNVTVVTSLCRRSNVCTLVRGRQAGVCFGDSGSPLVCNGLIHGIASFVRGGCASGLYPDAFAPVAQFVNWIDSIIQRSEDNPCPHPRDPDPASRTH

[2] = Inhibition of human cytomegalovirus protease; set-up: species or system Human betaherpesvirus 5
[3] = Chemical stability of the compound in human plasma assessed as half life; format: ADME, cell-free
[4] = biological target: 72 kDa type IV collagenase (Homo sapiens, UniProt P08253); test: Inhibition of MMP2
72 kDa type IV collagenase, sequence (P08253 whole entry): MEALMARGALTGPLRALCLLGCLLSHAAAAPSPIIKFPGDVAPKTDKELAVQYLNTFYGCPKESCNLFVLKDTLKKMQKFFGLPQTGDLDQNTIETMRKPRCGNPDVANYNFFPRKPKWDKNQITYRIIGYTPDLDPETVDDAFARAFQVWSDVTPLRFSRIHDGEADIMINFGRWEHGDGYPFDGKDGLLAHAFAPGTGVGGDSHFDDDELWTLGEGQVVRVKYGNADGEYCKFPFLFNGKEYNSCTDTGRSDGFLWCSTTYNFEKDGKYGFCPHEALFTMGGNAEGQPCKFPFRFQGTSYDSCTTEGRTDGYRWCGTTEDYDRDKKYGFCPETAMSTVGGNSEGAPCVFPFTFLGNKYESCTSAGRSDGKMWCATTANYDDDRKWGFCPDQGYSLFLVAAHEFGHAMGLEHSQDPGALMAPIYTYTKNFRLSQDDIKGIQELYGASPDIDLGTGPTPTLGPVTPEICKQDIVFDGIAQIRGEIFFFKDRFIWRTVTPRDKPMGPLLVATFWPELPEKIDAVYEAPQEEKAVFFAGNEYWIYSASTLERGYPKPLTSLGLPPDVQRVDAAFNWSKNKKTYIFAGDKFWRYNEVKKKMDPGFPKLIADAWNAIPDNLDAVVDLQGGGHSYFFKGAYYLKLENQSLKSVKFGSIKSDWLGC

[5] = Inhibition of human Tryptase
Rhesus monkey = test: Antidyslipidemic activity in cholesterol-fed rhesus monkey assessed as reduction in plasma cholesterol; format: functional; details: Macaca mulatta
Hamster [6] = test: Antidyslipidemic activity in cholesterol-fed hamster model assessed as reduction in liver cholesteryl esters; format: functional; details: Cricetinae
Canis familiaris = species: Canis familiaris; test: Antidyslipidemic activity in cholesterol-fed Dog assessed as reduction in plasma cholesterol level; format: functional; details: Canis lupus familiaris
Hamster [7] = test: Antidyslipidemic activity in hamster assessed as reduction in hepatic cholesteryl esters; format: functional; details: Cricetinae
Hamster [8] = test: Antidyslipidemic activity in cholesterol-fed hamster assessed as reduction in plasma cholesterol; format: functional; details: Cricetinae
Rattus norvegicus = species: Rattus norvegicus; test: Antidyslipidemic activity in cholesterol-fed rat assessed as reduction in plasma cholesterol; format: functional
[9] = Antidyslipidemic activity in rat hepatic microsomes assessed as inhibition of […]; format: functional, Liver
HepG2 = test: Antidyslipidemic activity in human HepG2 cells assessed as inhibition of cholesterol esterification; format: functional, cell-based
Caco-2 = test: Antidyslipidemic activity in human Caco2 cells assessed as inhibition of cholesterol esterification; format: functional, cell-based

O=C1N(c2ccccc2)C(c2ccccc2)C1(Cl)Cl (stereo unspecified)
MIC (Pseudomonas aeruginosa): 125 µg/mL (≈ 428 µM)

COc1ccc(C2N(c3ccc(OC)cc3)C(=O)C2(Cl)Cl)cc1 (stereo unspecified)
MIC (Pseudomonas aeruginosa): 125 µg/mL (≈ 355 µM)

Cc1ccc(C2N(c3ccc(C)cc3)C(=O)C2(Cl)Cl)cc1 (stereo unspecified)
MIC (Pseudomonas aeruginosa): 125 µg/mL (≈ 390 µM)

O=C1N(c2ccc(Cl)cc2)C(c2ccc(Cl)cc2)C1(Cl)Cl (stereo unspecified)
MIC (Pseudomonas aeruginosa): 125 µg/mL (≈ 346 µM)

O=C1N(c2ccccc2)C(c2ccc([N+](=O)[O-])cc2)C1(Cl)Cl (stereo unspecified)
MIC (Pseudomonas aeruginosa): 125 µg/mL (≈ 371 µM)

C[C@@H](NC(=O)N1C(=O)[C@@H](Cc2ccccc2)[C@H]1Oc1ccc(N2CCN(C)CC2)cc1)c1ccccc1
IC50 (Chymase): 0.46 nM

COc1ccc(C2C(O)C(=O)N2c2ccccc2)cc1N (stereo unspecified)
IC50 [1]: 5 µM

CCOC(=O)/C=C1\[C@@H](C(C)O[Si](C)(C)C(C)(C)C)C(=O)N1C(=O)c1cc(OCc2ccccc2)c(OCc2ccccc2)c(OCc2ccccc2)c1 (stereo partly specified)
IC50 (Neutrophil elastase): 500 nM

CC[C@@H](NC(=O)N1C(=O)CC1SC[C@H](CC(C)C)NC(=O)[C@@H](NC(=O)CC(C)(C)C)C(C)(C)C)c1ccccc1 (stereo partly specified)
IC50 [2]: 70 nM

CCOc1ccccc1C[C@@H]1C(=O)N(C(=O)NC(c2ccccc2)c2ccccc2)[C@@H]1Oc1ccc(C(=O)O)cc1
IC50 (Chymase): 3.1 nM
half-life [3]: 360 min

CCOC(=O)/C=C1\NC(=O)[C@@H]1[C@@H](C)OC(=O)c1cc(OCc2ccccc2)c(O)c(OCc2ccccc2)c1
IC50 [4]: 4 µM

N=C(N)N1CCC[C@H](C[C@H]2C(=O)N(C(=O)N3CCN(C(=O)CCCCCc4ccccc4)CC3)[C@@H]2C(=O)O)C1
IC50 [5]: < 1.7 nM

O=C(O)[C@@H]1[C@@H](CCC2CCCNC2)C(=O)N1C(=O)N1CCN(C(=O)CCCCCc2ccccc2)CC1 (stereo partly specified)
IC50 [5]: 1.8 nM

N=C(N)N1CCC[C@@H](C[C@H]2C(=O)N(C(=O)N3CCN(C(=O)CCCCCc4ccccc4)CC3)[C@@H]2C(=O)O)C1
IC50 [5]: < 1.7 nM

CC(C)(C)NC(=O)N1CCN(C(=O)N2C(=O)[C@H](CCCN=C(N)N)[C@H]2C(=O)O)CC1
IC50 [5]: 4 nM

O=C1[C@H](CC[C@H](O)c2ccc(F)cc2)[C@@H](c2ccc(O)cc2)N1c1ccc(F)cc1 [EZETIMIBE]
ED50 (Rhesus monkey): 0.5 µg/kg
ED50 (Hamster [6]): 0.04 mg/kg/day
ED50 (Canis familiaris): 0.007 mg/kg/day

COc1ccc([C@@H]2[C@@H](CCCc3ccccc3)C(=O)N2c2ccc(OC)cc2)cc1 [SCH-48461]
ED50 (Hamster [7]): 2 mg/kg/day
ED50 (Hamster [8]): 1 mg/kg/day
ED50 (Rattus norvegicus): 2 mg/kg/day
ED50 (Rhesus monkey): 0.2 mg/kg/day
IC50 [9]: 26 µM
IC50 (HepG2): 22 µM
IC50 (Caco-2): 32 µM
